This data set in a line: Solubility test (amount of organic solvent needed to completely dissolve 1 g of compound). It counts as physicochemical. The following applies: 1 g compound, room temperature, solvent added drop by drop with stirring. As for the experimental part: 1 g of a compound to be tested was poured into a test tube with stirring at room temperature and solvents listed in Table 1 were slowly added drop by drop. The amounts of the solvents required to completely dissolve 1 g of the tested compound were measured.

For `CCc1ccc(C)nc1N1C(=O)c2ccc3c4c(ccc(c24)C1=O)C(=O)N(c1ccccc1)C3=O` [Compound (1)], the “Amount of solvent required to completely dissolve 1 g of the tested compound: Acetone” value is 130 g, the “Amount of solvent required to completely dissolve 1 g of the tested compound: Chloroform” value was 5.3 g, the “Amount of solvent required to completely dissolve 1 g of the tested compound: Methylene chloride” value is 6.5 g and the “Amount of solvent required to completely dissolve 1 g of the tested compound: Tetrahydrofuran” value amounted to 5.8 g.

For the compound `CCc1ccc(C)nc1N1C(=O)c2ccc3c4c(ccc(c24)C1=O)C(=O)N(c1nc(C)ccc1CC)C3=O` [Compound (40)], the “Amount of solvent required to completely dissolve 1 g of the tested compound: Acetone” value is reported as 282 g, the “Amount of solvent required to completely dissolve 1 g of the tested compound: Chloroform” value was determined as 8.6 g, the “Amount of solvent required to completely dissolve 1 g of the tested compound: Methylene chloride” value amounted to 10.2 g and the “Amount of solvent required to completely dissolve 1 g of the tested compound: Tetrahydrofuran” value worked out at 9.7 g.

The values above are taken from patent US20060183043A1, “Electrophotographic photoreceptor containing pyridine-substituted asymmetric naphthalenetetracarboxylic acid diimide derivatives and electrophotographic imaging apparatus” (Samsung Electronics Co., Ltd., priority 2005, published 2006).
